In US12194294B2, “Oral drug delivery devices and methods using iontophoresis” (The Regents of the University of California, priority 2019, dated 2025):
Entries after “also recorded” stand apart in the source; their conditions may differ. Like-named read-outs stand apart in the source and are kept apart here.

Assays:
Caco-2 monolayers = conditions: for FITC-insulin transported across the cells: end of 5 h; for Papp of FITC-insulin across the cells: in 5 h
Protocol: (§1) Caco-2 human intestinal epithelial cells (passages #5-10) were cultured in DMEM containing 10% v/v FBS and 1% v/v P/S and seeded in 24 well plate transwells at a density of 2×10^5 cells/ml. 200 μl DMEM with cells was placed in apical side while 600 μl cell free DMEM was placed in the basolateral side. The cells were allowed to grow for a period of 18-21 days and medium replaced with fresh DMEM every other day.
(§2) To maintain sterile conditions, all in vitro experiments including circuit set up were done under aseptic conditions in a biosafety cabinet. A 6 V battery was used to supply electrical current to transwells containing Caco-2 monolayer. The higher potential of the battery was connected to the basolateral side of the transwell while the lower potential of the battery connected to the apical side while taking care not to touch the transwell membranes with Caco-2 cell monolayer. The current applied to the cell was monitored by an ammeter and its value was adjusted to 50 μA using a potentiometer. Three different branches, each attached to an ammeter, potentiometer and transwell were connected in parallel across the battery to enable three different measurements at a time.
Transport experiments were carried out in triplicates and at least 3 transwells were used per trial for each group. Before the start of the experiment, the existing medium in the transwell was replaced with phenol red, FBS and P/S free DMEM in both the apical (200 μl) and basolateral side (600 μl) and the cells were incubated for 30 minutes. […] This was performed at 0.25, 0.5, 1, 2, 3 and 5 h. A 50 μA electrical current was applied to the cells during the first hour of the study for a period of 10 min, followed by 10 min recovery period and this was repeated another two times. At the end of 1 h (total 30 minutes iontophoresis), the transwell plates were kept inside an incubator at 37° C., 5% CO2 and only taken out to remove 100 μl aliquots from the basolateral side followed by replacement with same volume fresh medium at the aforementioned time periods. […] TEER was measured at every time point when aliquots were withdrawn from the transwells. Apparent permeability coefficient (Papp) was calculated using the equation (Brown, et al., “Dermal and transdermal drug delivery systems: current and future prospects,” Drug Deliv. 13(3):175-87 (2006)):
The transport enhancement ratio (ER) was calculated using the equation (Brown, et al., 2006): […]
as §1
as §2, with “the battery was connected to” for “the battery connected to”, “a potentiometer. […]” for “a potentiometer. Three different branches, each attached to an ammeter, potentiometer and transwell were connected in parallel across the battery to enable three different measurements at a time.”

Caco-2 cells [1] = test: TEER measurement of tight junction integrity in Caco-2 monolayers during FITC-insulin transport study; type: cell-based, human; conditions: for TEER decrease: within 15 min
Protocol: Transport experiments were carried out in triplicates and at least 3 transwells were used per trial for each group. Before the start of the experiment, the existing medium in the transwell was replaced with phenol red, FBS and P/S free DMEM in both the apical (200 μl) and basolateral side (600 μl) and the cells were incubated for 30 min. […] This was performed at 0.25, 0.5, 1, 2, 3 and 5 h. A 50 μA electric current was applied to the cells during the first hour of the study for a period of 10 min, followed by a 10 min recovery period and this was repeated another two times. At the end of 1 h (total 30 min iontophoresis), the transwell plates were kept inside an incubator at 37° C., 5% CO2 and only taken out to remove 100 μl aliquots from the basolateral side followed by replacement with same volume fresh medium at the aforementioned time periods. […] TEER was measured at every time point when aliquots were withdrawn from the transwells.

Caco-2 cells [2] = test: Confocal microscopy of FITC-insulin uptake by Caco-2 cells; type: cell-based, human; conditions: cells exposed to electric current compared to control wells
Protocol: On the next day, the transwells were washed with HBSS and the membrane cut out and placed in glass slides. Mounting media with DAPI was added to the membranes and covered with glass slides. Confocal imaging was performed using Olympus Fluoview 1000 Spectral Confocal instrument at 60× magnification.
On the next day, the transwells were washed with HBSS and the membrane cut out and placed in glass slides. Mounting media with DAPI was added to the membranes and covered with glass slides. Confocal imaging was performed using Olympus Fluoview 1000™ Spectral Confocal instrument at 60× magnification.

non-diabetic rats = test: In vivo intestinal iontophoresis using insulin mucoadhesive patches: blood glucose; parameters: species or system rat
Protocol: Insulin mucoadhesive patches were prepared as described in Banerjee, et al., “Intestinal Mucoadhesive Devices for Oral Delivery of Insulin,” Bioeng. Transl. Med. 1, 338-346 (2016). […] About 110 mg of the mixture was pressed at 3-ton pressure using a hydraulic press into a patch. The patches were then cut into 5×3 mm (length×breadth) sized rectangular smaller patches. One side of the patch was completely covered with aluminum foil using minimal amount of super glue placed at one corner of the foil. Wires with a small section of their protective insulation removed were then stuck on the aluminum foil using super glue. Care was taken not to cover the entire wire placed over the foil with super glue. The exposed wire sticking on to the patches were then taped with an electrical insulating tape to prevent any loss of current in vivo through exposed wire.
Intestinal iontophoresis was carried out using a 6 V battery connected to the intestine. A potentiometer and an ammeter were used in the electrical circuit to accurately control and measure the electric current. Given that the identified safe threshold for iontophoresis is 0.5 mA/cm^2, the electrical parameters were selected in order to perform the studies using a safe current density of 0.33 mA/cm^2 (Singh, et. al., “Transdermal drug delivery by passive diffusion and iontophoresis: a review,” Med Res Rev., 13(5):569-621 (1993)). For the experiment, the rats were fasted overnight but given free access to water. Prior to the start of intestinal iontophoresis, the rats were anesthetized, a portion of abdomen prepped for surgery and an incision was made in the area to expose the intestine. Experiments were conducted using sterile instruments and following good surgical practices. […] Thereafter current (45-50 μA) was allowed to flow for 1.5 minutes followed by 3.5 minutes of recovery time for 1 h, amounting to a total 18 min of iontophoresis. After 1 h, the patches were left in place but the wires were disconnected from the battery and cut close to the inserted patches. The intestinal incisions with the patches left in place were stitched, the intestine put back into the abdomen and the muscle and skin sutured. Blood glucose was determined at the start of the study and at every 0.5 h till the end of study at 3 h. The rats were kept anesthetized until the end of experiment. Afterwards, the animals were euthanized and the intestinal sections in and around the patches were dissected for further histological examination to determine morphological changes, if any, due to iontophoresis.
Control experiments with no electric current were conducted similarly.
About 110 mg of the mixture was pressed at 3-ton pressure using a hydraulic press into a patch. The patches were then cut into 5×3 mm (length×breadth) sized rectangular smaller patches. One side of the patch was completely covered with aluminum foil using minimal amount of super glue placed at one corner of the foil. Wires with a small section of their protective insulation removed were then stuck on the aluminum foil using super glue. Care was taken not to cover the entire wire placed over the foil with super glue. The exposed wire sticking on to the patches were then taped with an electrical insulating tape to prevent any loss of current in vivo through exposed wire.
The circuit for in vivo experiments was set up as illustrated in FIG. 3. Intestinal iontophoresis was carried out using a 6 V battery connected to the intestine. A potentiometer and an ammeter were used in the electrical circuit to accurately control and measure the electric current. Given that the identified safe threshold for iontophoresis is 0.5 mA/cm2, the electrical parameters were selected in order to perform the studies using a safe current density of 0.33 mA/cm2 [8]. For the experiment, the rats were fasted overnight but given free access to water. […]

[3] = control (no current) wells, 2 h
[4] = control (no current) wells, 3 h
[5] = 1 U/kg, subcutaneously injected, 1.5 h
[6] = 1 U/kg, subcutaneously injected, 3 h

“fluorescein isothiocyanate (FITC)-insulin [FITC-insulin]” was tested, and the “FITC-insulin transported across the cells” value (Caco-2 monolayers; control group (no current)) was “about 5.5 μg”, the “FITC-insulin transported across the cells” value (Caco-2 monolayers; electric current applied (50 μA)) was “approximately 14.1 μg” and the “insulin transport across the cells, electric current vs control” value (Caco-2 monolayers; from 2 hours onwards) was “significantly higher”. The “Papp of FITC-insulin across the cells” value (Caco-2 monolayers; without electricity) was 0.99 ×10⁻⁶ cm/s, the “Papp of FITC-insulin across the cells” value (Caco-2 monolayers; without electricity (Example 3)) was 0.99 ×10⁻⁶ cm/s and the “TEER reduction of initial levels” value (Caco-2 cells [1]; [3]) was “around 9%”. For the same substance, the “TEER, % of initial levels” value (Caco-2 cells [1]; [3]) was 91.2±1.1%, the “TEER reduction of initial levels” value (Caco-2 cells [1]; [4]) was about 4% and the “TEER, % of initial levels” value (Caco-2 cells [1]; [4]) was 95.6±6.5%. For the same substance, the TEER decrease (Caco-2 cells [1]; control group) was “no specific decrease”, the “TEER drop of initial levels” value (Caco-2 cells [1]; electric current, 2 h) was 35% and the “TEER, % of initial levels” value (Caco-2 cells [1]; electric current, 2 h) was 65.7±3.8%. The TEER decrease (Caco-2 cells [1]; electric current) was 10%, the “uptake of FITC-insulin by cells (confocal images)” value (Caco-2 cells [2]) was “presence of higher FITC-insulin; also recorded: higher uptake” and the “uptake of FITC-insulin by cells (confocal images)” value (Caco-2 cells [2]; listed as FITCmsulin) was “higher uptake”.

“insulin solution: insulin solution injected intra-intestinally (50 U/kg) or subcutaneously (1 U/kg) as comparison” was tested, and the “blood glucose, % of initial levels” value (non-diabetic rats; [5]) was 57.9±4.1%, the “maximum drop in blood glucose levels” value (non-diabetic rats; [5]) was 42% and the “blood glucose drop after recovery” value (non-diabetic rats; [6]) was “about 17%”. The “blood glucose, % of initial levels” value (non-diabetic rats; [6]) was 83.3±2.6% and the “drop in blood glucose levels with time” value (non-diabetic rats; 50 U/kg, intra-intestinally injected) was “did not show any drop”.

Human Insulin was tested, and the “difference in TEER between control and electric current group” value (Caco-2 cells [1]; at the end at 5 hours) was “no significant difference”, the “TEER drop of initial levels” value (Caco-2 cells [1]; electric current, 2 h) was 35% and the “drop in blood glucose levels” value (non-diabetic rats; 50 U/kg patch in intestine, 45-50 μA current, 3 h) was 63%. The hypoglycemia (non-diabetic rats; patches with iontophoresis, rats, up to 3 h) was “severely hypoglycemic”.
